Experimental data as given in US20120202756A1, “USE OF PRODRUGS TO AVOID GI MEDIATED ADVERSE EVENTS” (priority 2009, published 2012).
Counter-ions that a name gives are not always drawn. Like-named read-outs stand apart in the source and are kept apart here.

What was measured:
Streptococcus pyogenes = experiment: MIC, clindamycin prodrugs; assay type: cell-based
Bifidobacterium longum = experiment: MIC, clindamycin prodrugs; assay type: cell-based; conditions: NCTC 11818
[1] = Stability in simulated intestinal juice (FeSSIF); assay type: in vitro ADME; conditions: FeSSIF pH 5.0, pancreatin 1%
[2] = tested on: Staphylococcus haemolyticus; experiment: MIC, clindamycin prodrugs; assay type: cell-based; conditions: antibiotic susceptible clinical isolate
Campylobacter jejuni = experiment: MIC, clindamycin prodrugs; assay type: cell-based
Veillonella parvula = experiment: MIC, clindamycin prodrugs; assay type: cell-based; conditions: NCTC 11810
Campylobacter coli = experiment: MIC, clindamycin prodrugs; assay type: cell-based
Eggerthella lenta = experiment: MIC, clindamycin prodrugs; assay type: cell-based
Corynebacterium jeikeium = conditions: antibiotic-susceptible clinical isolate
Prevotella denticola = conditions: clinical isolate
Bifidobacterium dentium = experiment: MIC, clindamycin prodrugs; assay type: cell-based; conditions: NCTC 11816
Helicobacter pylori = experiment: MIC, clindamycin prodrugs; assay type: cell-based
Listeria monocytogenes = conditions: antibiotic-susceptible clinical isolate
Group C Streptococcus = experiment: MIC, clindamycin prodrugs; assay type: cell-based; conditions: antibiotic-susceptible clinical isolate
[3] = tested on: Streptococcus constellatus; conditions: antibiotic-susceptible clinical isolate
[4] = tested on: Porphyromonas endodontalis; conditions: clinical isolate
Veillonella spp. = conditions: clinical isolate
[5] = tested on: Prevotella melaninogenicus; experiment: MIC, clindamycin prodrugs; assay type: cell-based
Propionibacterium acnes = experiment: MIC, clindamycin prodrugs; assay type: cell-based
Fusobacterium nucleatum = conditions: clinical isolate
[6] = tested on: Staphylococcus epidermidis; experiment: MIC, clindamycin prodrugs; assay type: cell-based
Clostridium perfringens = experiment: microbe, parasite or virus in culture; assay type: cell-based
Staphylococcusaureus = experiment: MIC, clindamycin prodrugs; assay type: cell-based
Enterococcus faecium = conditions: vancomycin-susceptible clinical isolate
Streptococcus pneumoniae = experiment: MIC, clindamycin prodrugs; assay type: cell-based
Clostridium bifermentans = conditions: ATCC 638
Streptococcus mitis = conditions: antibiotic-susceptible clinical isolate
Enterococcus faecalis = conditions: ATCC 29212 antibiotic-susceptible type strain
Bacteroides fragilis = experiment: MIC, clindamycin prodrugs; assay type: cell-based
[7] = tested on: Bacteroides thetaiotamicron; experiment: MIC, clindamycin prodrugs; assay type: cell-based
[8] = tested on: Bifidobacterium adolescentis; experiment: MIC, clindamycin prodrugs; assay type: cell-based; conditions: NCTC 11814
Veillonella atypical = experiment: MIC, clindamycin prodrugs; assay type: cell-based; conditions: NCTC 11830
Clostridium sporogenes = experiment: MIC, clindamycin prodrugs; assay type: cell-based; conditions: ATCC 3584
[9] = antibiotic-susceptible clinical isolate

CCCC1CC(C(=O)NC(C(C)Cl)C2OC(SC)C(OC(=O)CCC(=O)N[C@H](C(=O)O)C(C)C)C(O)C2O)N(C)C1 (stereo partly drawn) [Clindamycin succinyl valine ester, Clindamycin-2-[succinyl-(S)-valine]ester trifluoroacetate]
0.5 µg/mL: Minimum inhibitory concentration (Bifidobacterium longum) | Minimum inhibitory concentration (Bifidobacterium dentium) | Minimum inhibitory concentration (Veillonella spp.) | Minimum inhibitory concentration (Streptococcus pneumoniae; ATCC 49619 antibiotic-susceptible type strain) | Minimum inhibitory concentration (Streptococcus pneumoniae; penicillin-susceptible clinical isolate) | Minimum inhibitory concentration [8]
<1%: Simulated intestinal juice (2 h, 37° C.) (FeSSIF) % active drug generated [1]
2 µg/mL: Minimum inhibitory concentration (Streptococcus pyogenes; Macrolide (MLS) resistant clinical isolate) | Minimum inhibitory concentration [2] | Minimum inhibitory concentration (Propionibacterium acnes) | Minimum inhibitory concentration (Propionibacterium acnes; clinical isolate MIC clindamycin 0.5 mg/L) | Minimum inhibitory concentration ([6]; antibiotic susceptible clinical isolate) | Minimum inhibitory concentration (Staphylococcusaureus; ATCC 29213 - antibiotic-susceptible type strain) | Minimum inhibitory concentration (Veillonella atypical)
1 µg/mL: Minimum inhibitory concentration (Streptococcus pyogenes; [9]) | Minimum inhibitory concentration (Veillonella parvula) | Minimum inhibitory concentration (Prevotella denticola) | Minimum inhibitory concentration (Group C Streptococcus) | Minimum inhibitory concentration [3] | Minimum inhibitory concentration (Clostridium perfringens; ATCC 13124) | Minimum inhibitory concentration (Clostridium perfringens; [9]) | Minimum inhibitory concentration (Staphylococcusaureus; ATCC 25923 - antibiotic-susceptible type strain)
64 µg/mL: Minimum inhibitory concentration (Clostridium difficile; NCTC 13366 - NAP1/027) | Minimum inhibitory concentration (Clostridium difficile; ribotype 002 - clinical isolate) | Minimum inhibitory concentration (Clostridium difficile; ribotype 011 - clinical isolate) | Minimum inhibitory concentration (Clostridium difficile; ribotype 027 - clinical isolate)
16 µg/mL: Minimum inhibitory concentration (Listeria monocytogenes) | Minimum inhibitory concentration ([7]; ATCC 29741)
0.12 µg/mL: Minimum inhibitory concentration [4]
≦0.03 ug/mL: Minimum inhibitory concentration (Campylobacter jejuni; ATCC 33560) | Minimum inhibitory concentration (Campylobacter jejuni; clinical isolate) | Minimum inhibitory concentration (Campylobacter coli; ATCC 33559) | Minimum inhibitory concentration (Campylobacter coli; clinical isolate) | Minimum inhibitory concentration (Helicobacter pylori; ATCC 43504) | Minimum inhibitory concentration (Helicobacter pylori; clinical isolate (r56)) | Minimum inhibitory concentration (Helicobacter pylori; clinical isolate (r57)) | Minimum inhibitory concentration (Helicobacter pylori; clinical isolate (r100)) | Minimum inhibitory concentration (Helicobacter pylori; clinical isolate (r101))
8 µg/mL: Minimum inhibitory concentration (Eggerthella lenta; ATCC 43055) | Minimum inhibitory concentration (Eggerthella lenta; clinical isolate) | Minimum inhibitory concentration (Bacteroides fragilis; ATCC 25285) | Minimum inhibitory concentration (Bacteroides fragilis; clinical isolate)
0.25 µg/mL: Minimum inhibitory concentration ([5]; clinical isolate (first listed, r37)) | Minimum inhibitory concentration ([5]; clinical isolate (second listed, r38)) | Minimum inhibitory concentration (Fusobacterium nucleatum) | Minimum inhibitory concentration (Streptococcus mitis)
4 µg/mL: Minimum inhibitory concentration ([6]; methicillin-resistant clinical isolate) | Minimum inhibitory concentration (Clostridium bifermentans)
>64 µg/mL: Minimum inhibitory concentration (Corynebacterium jeikeium) | Minimum inhibitory concentration (Clostridium difficile; ATCC 700057) | Minimum inhibitory concentration (Clostridium difficile; [9]) | Minimum inhibitory concentration (Clostridium difficile; ribotype 176 - clinical isolate) | Minimum inhibitory concentration (Staphylococcusaureus; ATCC 43300 - methicillin-resistant type strain) | Minimum inhibitory concentration (Enterococcus faecium) | Minimum inhibitory concentration (Enterococcus faecalis) | Minimum inhibitory concentration (Clostridium sporogenes)
32 µg/mL: Minimum inhibitory concentration (Clostridium difficile; ribotype 050 - clinical isolate) | Minimum inhibitory concentration ([7]; NCTC 10582)
